Measurements as given in patent publication US10041905B2, “Electrochemically active agents for pH modulation in biological buffers” (Robert Bosch GmbH, priority 2015, dated 2018).

Legend:
[1] = target: T1, Green Fluorescent Protein (GFP) (Aequorea victoria, UniProt P42212); assay: Fluorescence intensity of GFP after incubation with benzoquinones (protein stability); type: biochemical; settings: 0.5 mM benzoquinone, phosphate buffered saline, 30 min
Experimental: Para-benzoquinones and ortho-benzoquinones (compounds 2, 4, 6, and 9 in FIG. 31) are susceptible to nucleophilic attack at the double bond of the ring (positions 2, 3, 5 and 6 in structure 2 of FIG. 31, positions 3, 4, 5 and 6 in structure 4 of FIG. 31, and positions 2 and 3 in structure 6 of FIG. 31). Introducing substituents at some or all of those positions can mitigate the problem of nucleophilic attack. […] Fluorescence intensity of Green Fluorescent Protein (GFP) was measured after incubation with three different benzoquinones in phosphate buffered saline for 30 min (concentration of benzoquinones was 0.5 mM). The difference in fluorescence intensity indicates the varied effect that the different substitutions in benzoquinones have on the stability of GFP. Fluorescence intensity of GFP is indicative of its structural integrity. Losses in fluorescence intensity usually indicate loss of its tertiary structure (protein denaturation) (Yin D. X., Zhu L., Schimke R. T. Anal. Biochem. 1996, 235:195-201).

[2] = target: T1, Green Fluorescent Protein (GFP); settings: literature (Loomis et al.; U.S. Pat. No. 6,753,312); cited from earlier work
[3] = Electrochemical generation of H+ or OH- ions at indium tin oxide electrode surfaces (electro-oxidation / electro-reduction, cyclic voltammetry); type: physicochemical
From the text: Electrode material used: The electrode material was indium tin oxide. This is a semiconducting electrode surface with very large potential window in an aqueous solution.
Oxidation of ascorbic acid at the electrode surfaces produced H^+ ions and changed the electrode surface pH to a more acidic state: AH2→A+2H^++2e^−, where AH2 is ascorbic acid ([…]) (as shown in FIG. 5). The electrode potential at which it oxidizes was less than 0.5V for Indium tin oxide material vs Ag/AgCl reference electrode (as shown in FIG. 7). This potential was less than the voltages needed for the oxygen evolution reaction in aqueous solution. The ascorbic acid also acted as a sacrificial species to prevent electrochemical degradation of the surface chemistry.
Reduction of benzoquinone (C6H4O2) into Hydroquinone (C6H6O2) can produce OH^− ions at −0.1V: BQ+2e^−+2H2O →HQ+2OH^− This reduction reaction increased the pH at the electrode interface.

O=C1C=CC(=O)C=C1 [unsubstituted benzoquinone, 1,4-benzoquinone]
loss in GFP fluorescence intensity after incubation [1]: 25%
Michael addition reaction with amino groups of proteins [2]: undergoes Michael addition reaction
potential of reduction producing OH- ions ([3]; reduction of benzoquinone into hydroquinone): −0.1 V

O=C1O[C@H]([C@@H](O)CO)C(O)=C1O [ascorbic acid]
potential of current increase indicating start of oxidation ([3]; cyclic voltammetry, ITO electrodes): around 0.25 V
electrode potential at which it oxidizes ([3]; indium tin oxide vs Ag/AgCl reference electrode): less than 0.5 V
